Measured values reported in US20180057505A1, “BICYCLIC HETEROARYL COMPOUNDS USEFUL AS INHIBITORS OF THE PAR-2 SIGNALING PATHWAY” (VERTEX PHARMACEUTICALS INCORPORATED, priority 2015, published 2018).

What was measured:
[1] = In vivo rat pharmacokinetics experiments; conditions: for F: oral gavage, dose 1 to 600 mg/kg
Method: Example 99: Protocol for Testing PAR2 Compounds In Vivo Rat Pharmacokinetics Experiments
Compounds delivered by intravenous route were formulated using a solution formulation consisting of 5% N-methylpyrrolidone 10% Vitamin E-TPGS and 85% water (v/v/) or a solution formulation consisting of 25% N-methylpyrrolidone 35% polyethylene glycol 400 and 40% water (v/v/). Intravenous formulations were administered by a bolus injection (over approximately 10 seconds) using a hypodermic needle attaches to a syringe (tail vein). The dose volume was varied from 1 to 2 mL/kg and the dose was varied from 0.5 to 1 mg/kg. Compounds delivered orally were formulated as a solution formulation consisting of 5% N-methylpyrrolidone 10% Vitamin E-TPGS and 85% water (v/v/) or as fine suspension using a cellulose derivative suspending agent with or without the addition of a wetting agent/surfactant. Milling of large particles was performed as needed to reduce particle size using focused electroacoustic milling, homogenization or low energy media milling. A spray-dried solid dispersion was prepared for key compounds using 1:1 combination with cellulose derivatives. Test compounds were administered orally by gavage using a gavage plastic needle attached to a syringe. The dose volume was varied from 5 to 10 mL/kg and the dose was varied from 1 to 600 mg/kg.
Rats were bled by venipuncture (jugular vein) and the samples were collected into tubes containing K3EDTA. The tubes were placed on wet ice until processed. The samples were centrifuged for approximately 10 minutes (at approximately 4° C.) within approximately 30 minutes of collection to prepare plasma or diluted in citrate buffer (1:3) and stored frozen (approximately −30° C.). Thawed plasma or whole blood samples were extracted by protein precipitation using an organic solvent followed by centrifugation. The supernatants were separated by high-performance liquid chromatography coupled to mass spectrometry detection. A calibration curve was prepared using reference standard compounds spiked into either blank plasma or whole blood matrices and extracted similarly to unknown samples. Pharmacokinetic parameters were calculated using non-compartmental analysis.

[2] = system: carrageenan induced paw edema; test: Rat carrageenan-induced paw edema model; assay type: in vivo; conditions: given 0.5-3 hour before carrageenan
Method: Example 100: In Vivo Pharmacological Evaluation of PAR2 Pathway Inhibitors Subjects and Housing and Rat Carrageenan-Induced Paw Edema Model Male Sprague Dawley rats were housed in groups in a temperature controlled room and were acclimatized in the animal facility for at least three days prior to use. Experiments were performed during the light phase of the cycle. Animals have food and water ad libitum. Peripheral inflammation was induced by intra-plantar administration of 100 ul of a 1% w/volume (in saline) carrageenan solution under isoflurane anesthesia. The degree of swelling was assessed using the plethysmometer at 2-3-4-5-6 h after carrageenan injection. Test compound or vehicle (0.5% MC/0.1% SDS) was systemically administered at the indicated doses in a volume of 5 mL/kg either 0.5-3 hour before carrageenan challenge (Table 4).

[3] = molecular target: T1, PAR2 (HT-29 cells) (Homo sapiens, UniProt P55085); test: Ca FLIPR TETRA assay, ANTAGONIST mode, activator 8 μM SLIGKV; assay type: cell-based; conditions: HT-29 cells; activator 8 μM SLIGKV; Method A: maximal concentration of antagonist 0.1, 1 or 2 μM
T1 construct: host or cells: HT-29
T1 sequence (P55085 26-397): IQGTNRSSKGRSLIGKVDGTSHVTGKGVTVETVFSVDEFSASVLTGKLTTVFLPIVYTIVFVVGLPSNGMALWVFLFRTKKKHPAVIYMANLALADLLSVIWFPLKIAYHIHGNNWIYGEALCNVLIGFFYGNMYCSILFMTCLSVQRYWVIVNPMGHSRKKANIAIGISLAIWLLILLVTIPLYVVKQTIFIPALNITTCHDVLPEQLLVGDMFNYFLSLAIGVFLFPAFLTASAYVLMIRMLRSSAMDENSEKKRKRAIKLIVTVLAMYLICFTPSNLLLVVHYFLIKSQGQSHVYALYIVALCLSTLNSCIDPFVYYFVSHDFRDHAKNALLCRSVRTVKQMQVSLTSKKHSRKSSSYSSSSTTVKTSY
In short: (§1)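 Compounds are added to calcium 5-loaded HT-29 cells, read once for intrinsic Ca2+ activation, then incubated 30 min at room temperature. The same wells are then stimulated with a fixed final activator level and the Ca2+ response recorded on FLIPR Tetra.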

[4] = molecular target: T1, PAR2 (HT-29 cells); test: Ca FLIPR TETRA assay, ANTAGONIST mode, activator 3.1 U/mL trypsin; assay type: cell-based; conditions: HT-29 cells; activator 3.1 U/mL trypsin; Method A: maximal concentration of antagonist 0.1, 1 or 2 μM
In short: as §1

[5] = system: Thrombin-stimulated Ca2+ response in HT-29 cells; test: Ca FLIPR TETRA assay, ANTAGONIST mode, activator 1 U/mL Thrombin; assay type: cell-based; conditions: Homo sapiens; HT-29 cells, activator 1 U/mL Thrombin
In short: as §1

[6] = system: UTP-stimulated Ca2+ response in HT-29 cells; test: Ca FLIPR TETRA assay, ANTAGONIST mode, activator 0.6 μM UTP; assay type: cell-based; conditions: Homo sapiens; HT-29 cells, activator 0.6 μM UTP
In short: as §1

[7] = intravenous bolus 0.5 to 1 mg/kg, non-compartmental analysis

Row | Structure (SMILES) | Clp [1, 7] [mL/min/kg] | T ½ ([1]; non-compartmental analysis) [h] | F [1] [%] | % inhibition ([2]; dose 20 mg/kg) [%] | other results
1 | CC(C)(C)c1cc(-c2ccc(Cl)c(F)c2)nc2cc(C(=O)N3CCN(c4ccc(C(=O)O)cn4)CC3(C)C)oc12 [Compound I-287] | 5.2 | 3.7 | 58 |  | % inhibition ([2]; dose 200 mg/kg): 30%
2 | CC1(C)CCC(c2cc(C(C)(C)C)c3oc(C(=O)N4CCN(C(=O)[C@H]5CC[C@@](C)(C(=O)O)CC5)CC4(C)C)cc3n2)CC1 [Compound I-316] | 13.9 | 1.0 | 49 | 38 | % inhibition ([2]; dose 5 mg/kg): 25%
3 | CC(C)(C)c1cc(-c2ccc(Cl)c(F)c2)nc2cc(C(=O)N3CCN(C(=O)CC4(C(=O)O)CCCC4)CC3(C)C)oc12 [Compound I-324] | 21.3 | 0.47 | 19 | 71 | 
4 | CC(C)(C)c1cc(-c2ccc(Cl)c(F)c2)nc2cc(C(=O)N3CCN(c4ncc(-c5nnn[nH]5)cn4)CC3(C)C)oc12 [Compound I-331] | 8.9 | 1.6 |  | 27 | 
5 | CC1(C)CCC(c2cc(C(C)(C)C)c3oc(C(=O)N4CCN(C(=O)CC5(C(=O)O)CCC5)CC4(C)C)cc3n2)CC1 [Compound I-338] | 33 | 0.5 |  | 0 | 
6 | CC(C)[C@H](CC(=O)N1CCN(C(=O)c2cc3nc(-c4ccc(Cl)c(F)c4)cc(C(C)(C)C)c3o2)C(C)(C)C1)C(=O)O [Compound I-343] | 53 | 0.33 | 27 | 29 | 
7 | CC(C)(C)c1cc(-c2ccc(Cl)c(F)c2)nc2cc(C(=O)N3CCN(c4cccc(-c5nnn[nH]5)n4)CC3(C)C)oc12 [Compound I-344] | 10.2 | 0.99 | 24 | 43 | 
8 | CC1(C)CCC(c2cc(C(C)(C)C)c3oc(C(=O)N4CCN(c5cccc(-c6nnn[nH]6)n5)CC4(C)C)cc3n2)CC1 [Compound I-345] | 7.6 | 1.8 | 52 |  | % inhibition ([2]; dose 15 mg/kg): 28%
9 | CC1(C)CCC(c2cc(C(C)(C)C)c3oc(C(=O)N4CCN(c5ncc(-c6nnn[nH]6)cn5)CC4(C)C)cc3n2)CC1 [Compound I-346] | 16.5 | 0.44 | 4.7 | 60 | 
10 | Cc1ccc(C(=O)O)c(N2CCN(C(=O)c3cc4nc(-c5ccc(Cl)c(F)c5)cc(C(C)(C)C)c4o3)C(C)(C)C2)n1 [Compound I-352] | 6.5 | 5.6 | 48 | 61 | 
11 | CC1(C)CCC(c2cc(C(C)(C)C)c3oc(C(=O)N4CCN(C(=O)CCC(C)(C)C(=O)O)CC4(C)C)cc3n2)CC1 [Compound I-354] | 32 | 0.57 | 52 | 60 | 
12 | CC(C)(CCC(=O)N1CCN(C(=O)c2cc3nc(-c4ccc(Cl)c(F)c4)cc(C(C)(C)C)c3o2)C(C)(C)C1)C(=O)O [Compound I-367] | 28 | 0.32 | 2.7 | 68 | 
13 | CC(C)(C)c1cc(-c2ccc(Cl)c(F)c2)nc2cc(C(=O)N3CCN(c4ccn[nH]4)C(=O)C3(C)C)oc12 [Compound I-406] | 3.6 | 23.2 | 66 | 21 | 
14 | Cc1nc(N2CCN(C(=O)c3cc4nc(-c5ccc(Cl)c(F)c5)cc(C(C)(C)C)c4o3)C(C)(C)C2)ccc1C(=O)O [Compound I-411] | 6.5 | 2.0 | 70 |  | % inhibition ([2]; dose 8 mg/kg): 36%
15 | CC1(C)CCC(c2cc(C(C)(C)C)c3oc(C(=O)N4CCN(c5cccc(C(=O)O)n5)CC4(C)C)cc3n2)CC1 [Compound I-449] | 5.0 | 5.3 | 119 |  | % inhibition ([2]; dose 15 mg/kg): 22%
16 | Cc1nc(N2CCN(C(=O)c3cc4nc(C5CCC(C)(C)CC5)cc(C(C)(C)C)c4o3)C(C)(C)C2)ncc1C(=O)O [Compound I-465] | 9.2 | 5.1 | 46 | 6 | 
17 | CC(C)(C)c1cc(-c2ccc(Cl)c(F)c2)nc2cc(C(=O)N3CCN(c4cccc(C(=O)O)n4)CC3(C)C)oc12 [Example I-448, 6-[4-[7-tert-butyl-5-(4-chloro-3-fluoro-phenyl)furo[3,2-b]pyridine-2-carbonyl]-3,3-dimethyl-piperazin-1-yl]pyridine-2-carboxylic acid] |  |  | 125 | 21 | IC50 [3]: 0.2 nM; IC50 [4]: 0.3 nM; IC50 [5]: 2000 nM; IC50 [6]: 1790 nM; clearance ([1]; plasma, intravenous bolus 0.5 to 1 mg/kg, non-compartmental analysis, read-out: Clp): 9.3 mL/min/kg; half-life ([1]; plasma, non-compartmental analysis, read-out: T ½ (converted)): 5.2 h; % inhibition ([2]; dose 0.8 mg/kg): 11%; % inhibition ([2]; dose 3 mg/kg): 18%; % inhibition ([2]; dose 10 mg/kg): 30%
